From publication PMC12439760 (Bioorganic & medicinal chemistry, 2025)
Where “and” joins values, the source holds several entries; their conditions need not be identical. Equal values may be shown once.

How the values were obtained:
hCB1 receptor [1] = target: T1, hCB1 receptor (Homo sapiens, UniProt P21554); assay: hCB1 Gαq16-coupled calcium mobilization assay in CHO-K1 cells; assay type: cell-based; conditions: hCB1 Ca EC50, CHO cells expressing hCB1 and Gαq16, calcium mobilization
hCB2 receptor [2] = target: T2, hCB2 receptor (Homo sapiens, UniProt P34972); assay: hCB2 Gαq16-coupled calcium mobilization assay in CHO-K1 cells; assay type: cell-based; conditions: hCB2 Ca EC50, CHO cells expressing hCB2 and Gαq16, calcium mobilization
T2 sequence (P34972 whole entry): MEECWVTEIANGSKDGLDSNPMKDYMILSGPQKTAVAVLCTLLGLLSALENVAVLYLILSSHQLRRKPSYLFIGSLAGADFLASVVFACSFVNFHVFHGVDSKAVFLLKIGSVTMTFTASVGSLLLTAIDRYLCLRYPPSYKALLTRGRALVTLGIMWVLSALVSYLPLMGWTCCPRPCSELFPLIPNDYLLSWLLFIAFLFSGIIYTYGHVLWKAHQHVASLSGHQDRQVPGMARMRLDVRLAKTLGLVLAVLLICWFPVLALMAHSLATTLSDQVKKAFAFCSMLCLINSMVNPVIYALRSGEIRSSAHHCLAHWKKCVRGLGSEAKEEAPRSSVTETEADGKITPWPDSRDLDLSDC

hCB1 receptor [3] = target: T1, hCB1 receptor; assay: [3H]CP55940 radioligand displacement, CHO cell membranes overexpressing hCB1; assay type: binding
hCB2 receptor [4] = target: T2, hCB2 receptor; assay: [3H]CP55940 radioligand displacement, CHO cell membranes overexpressing hCB2; assay type: binding
Human liver microsome = assay type: in vitro ADME; conditions: pooled human liver microsomes, pH 7.4
CYP1A2 = CYP1A2 induction assay in HepaRG cells; assay type: cell-based, human; conditions: 10 μM, 24 hrs, % of positive control 50 μM omeprazole
CYP2B6 = CYP2B6 induction assay in HepaRG cells; assay type: cell-based, human; conditions: 10 μM, 24 hrs, % of positive control 1 mM phenobarbital
CYP3A4 = CYP3A4 induction assay in HepaRG cells; assay type: cell-based, human; conditions: 10 μM, 24 hrs, % of positive control 10 μM rifampicin
[5] = Mouse pharmacokinetic study; assay type: in vivo, C57BL/6 mice; conditions: for plasma levels: mice, 3 mg/kg po, data not shown
[6] = system: CYP3A4, CYP1A2 and CYP2B6; assay: Isoform-specific CYP induction assays in HepaRG cells, overall profile; assay type: cell-based, human; conditions: data not shown

T1 sequence (P21554 whole entry): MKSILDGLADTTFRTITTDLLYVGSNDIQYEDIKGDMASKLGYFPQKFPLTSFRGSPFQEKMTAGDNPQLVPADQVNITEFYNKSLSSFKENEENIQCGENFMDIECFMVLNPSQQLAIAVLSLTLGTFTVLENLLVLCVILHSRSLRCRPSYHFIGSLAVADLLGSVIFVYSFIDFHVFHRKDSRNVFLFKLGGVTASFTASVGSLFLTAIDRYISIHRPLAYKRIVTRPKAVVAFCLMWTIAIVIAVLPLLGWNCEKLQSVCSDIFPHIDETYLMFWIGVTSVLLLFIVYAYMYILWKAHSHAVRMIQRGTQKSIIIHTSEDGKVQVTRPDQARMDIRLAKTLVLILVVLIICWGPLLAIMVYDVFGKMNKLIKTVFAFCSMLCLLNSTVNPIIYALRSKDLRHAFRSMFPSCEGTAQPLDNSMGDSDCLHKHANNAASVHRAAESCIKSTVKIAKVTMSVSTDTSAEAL

SMILES | EC50 (hCB1 receptor [1]) | EC50 (hCB2 receptor [2]) | half-life at 1 μM (Human liver microsome) | microsomal CLint at 1 μM (Human liver microsome) | further results
CC(C)(NC(=O)c1nn(Cc2ccc(F)cc2)c2ccccc12)C(=O)N1CCC[C@H]1C(N)=O [Compound 14, N-{1-[(2S)-2-Carbamoylpyrrolidin-1-yl]-2-methyl-1-oxopropan-2-yl}-1-[(4-fluorophenyl)methyl]-1H-indazole-3-carboxamide] | ~0.02 µM and 0.02 µM | 0.016 ± 0.001 µM | 10.2 h | 2 µL/min/mg | Ki (hCB1 receptor [3]): 0.004 µM; Ki (hCB2 receptor [4]): 0.006 µM
CC(C)(NC(=O)c1nn(Cc2ccc(F)cc2)c2ccccc12)c1cccc(C(N)=O)c1 [Compound 24, N-[2-(3-Carbamoylphenyl)propan-2-yl]-1-[(4-fluorophenyl)methyl]-1H-indazole-3-carboxamide] | 0.025 ± 0.005 µM | – | 2.05 h | 5 µL/min/mg | CYP1A2 Induction (% of Omeprazole) (CYP1A2): <1%; CYP2B6 Induction (% of Phenobarbital) (CYP2B6): <1%; CYP3A4 Induction (% of Rifampicin) (CYP3A4): <1%; Max. Conc. Brain ([5]; mouse, IP 2.5 mg/kg, at 0.25 h): 1.4 ng/mL; Max. Conc. Liver ([5]; mouse, IP 2.5 mg/kg, at 0.25 h): 650 ng/mL; Max. Conc. Plasma ([5]; mouse, IP 2.5 mg/kg, at 0.25 h): 72 ng/mL
CC(C)(NC(=O)c1nn(Cc2ccc(F)cc2)c2ccccc12)C1CCCN(C(N)=O)C1 (stereo not drawn) [Compound 31, N-[2-(1-Carbamoylpiperidin-3-yl)propan-2-yl]-1-[(4-fluorophenyl)methyl]-1H-indazole-3-carboxamide] | – | 0.029 ± 0.004 µM | 0.433 h | – | Ki (hCB1 receptor [3]): 0.049 µM; Ki (hCB2 receptor [4]): 0.027 µM
NC(=O)CN1CCC[C@@H](CNC(=O)c2nn(Cc3ccc(F)cc3)c3ccccc23)C1 [Compound 32, N-{[(3S)-1-(Carbamoylmethyl)piperidin-3-yl]methyl}-1-[(4-fluorophenyl)methyl]-1H-indazole-3-carboxamide] | 0.168 ± 0.023 µM | 0.15 ± 0.006 µM | – | – | –
NC(=O)CN1CCC[C@H](CNC(=O)c2nn(Cc3ccc(F)cc3)c3ccccc23)C1 [Compound 33, N-{[(3R)-1-(Carbamoylmethyl)piperidin-3-yl]methyl}-1-[(4-fluorophenyl)methyl]-1H-indazole-3-carboxamide] | 0.239 ± 0.076 µM | 0.17 ± 0.024 µM | – | – | –
CC(C)(NC(=O)c1nn(Cc2ccc(F)cc2)c2ccccc12)C1CCCN(CC(N)=O)C1 (stereo not drawn) [Compound 34, N-{2-[1-(Carbamoylmethyl)piperidin-3-yl]propan-2-yl}-1-[(4-fluorophenyl)methyl]-1H-indazole-3-carboxamide] | 0.369 ± 0.057 µM | 0.028 ± 0.013 µM | < 0.333 h | – | –
CC(C)(NC(=O)c1nn(Cc2ccc(F)cc2)c2ccccc12)C1CCN(C(N)=O)CC1 [Compound 36, N-[2-(1-Carbamoylpiperidin-4-yl)propan-2-yl]-1-[(4-fluorophenyl)methyl]-1H-indazole-3-carboxamide] | 2.37 ± 0.452 µM | 0.132 ± 0.049 µM | – | – | –
O=C(NC1CCCCC1)c1nn(Cc2ccc(F)cc2)c2ccccc12 [Compound 37, N-Cyclohexyl-1-[(4-fluorophenyl)methyl]-1H-indazole-3-carboxamide] | 0.023 ± 0.002 µM | 0.014 ± 0.003 µM | – | – | –
NC(=O)N1CCC[C@H](NC(=O)c2nn(Cc3ccc(F)cc3)c3ccccc23)C1 [Compound 38, N-[(3S)-1-Carbamoylpiperidin-3-yl]-1-[(4-fluorophenyl)methyl]-1H-indazole-3-carboxamide] | 0.541 ± 0.052 µM | 0.059 ± 0.001 µM | – | – | –
NC(=O)CN1CCC[C@H](NC(=O)c2nn(Cc3ccc(F)cc3)c3ccccc23)C1 [Compound 40, N-[(3S)-1-(Carbamoylmethyl)piperidin-3-yl]-1-[(4-fluorophenyl)methyl]-1H-indazole-3-carboxamide] | 0.036 ± 0.014 µM | 0.022 ± 0.001 µM | – | – | –
NC(=O)CN1CCC[C@@H](NC(=O)c2nn(Cc3ccc(F)cc3)c3ccccc23)C1 [Compound 41, N-[(3R)-1-(Carbamoylmethyl)piperidin-3-yl]-1-[(4-fluorophenyl)methyl]-1H-indazole-3-carboxamide] | 0.803 ± 0.073 µM | 0.033 ± 0.001 µM | – | – | –
CC1(NC(=O)c2nn(Cc3ccc(F)cc3)c3ccccc23)CCCN(CC(N)=O)C1 (stereo not drawn) [Compound 42, N-[1-(Carbamoylmethyl)-3-methylpiperidin-3-yl]-1-[(4-fluorophenyl)methyl]-1H-indazole-3-carboxamide] | 0.039 ± 0.001 µM | 0.041 ± 0.014 µM | – | – | –
CC(C)(NC(=O)c1nn(Cc2ccc(Cl)cc2)c2ccccc12)c1cccc(C(N)=O)c1 [Compound 43, N-[2-(3-Carbamoylphenyl)propan-2-yl]-1-[(4-chlorophenyl)methyl]-1H-indazole-3-carboxamide] | > 10 µM | > 10 µM | – | – | –
CC(C)(NC(=O)c1nn(Cc2ccc(C#N)cc2)c2ccccc12)c1cccc(C(N)=O)c1 [Compound 44, N-[2-(3-Carbamoylphenyl)propan-2-yl]-1-[(4-cyanophenyl)methyl]-1H-indazole-3-carboxamide] | 0.234 ± 0.154 µM | > 10 µM | > 3.33 h | < 5 µL/min/mg | –
CC(C)(NC(=O)c1nn(CCc2ccc(F)cc2)c2ccccc12)c1cccc(C(N)=O)c1 [Compound 46, N-[2-(3-Carbamoylphenyl)propan-2-yl]-1-[2-(4-fluorophenyl)ethyl]-1H-indazole-3-carboxamide] | > 10 µM | > 10 µM | – | – | –
CC(C)(NC(=O)c1nn(CC2CCCC2)c2ccccc12)c1cccc(C(N)=O)c1 [Compound 48, N-[2-(3-Carbamoylphenyl)propan-2-yl]-1-(cyclopentylmethyl)-1H-indazole-3-carboxamide] | 0.893 ± 0.192 µM | 0.613 ± 0.351 µM | 0.367 h | 58 µL/min/mg | –
CC(C)(NC(=O)c1nn(CCC2CCCC2)c2ccccc12)c1cccc(C(N)=O)c1 [Compound 49, N-[2-(3-Carbamoylphenyl)propan-2-yl]-1-(2-cyclopentylethyl)-1H-indazole-3-carboxamide] | 0.383 ± 0.163 µM | 0.189 ± 0.01 µM | – | – | –
CC(C)(NC(=O)c1nn(CC2CCC(F)(F)CC2)c2ccccc12)c1cccc(C(N)=O)c1 [Compound 50, N-[2-(3-Carbamoylphenyl)propan-2-yl]-1-[(4,4-difluorocyclohexyl)methyl]-1H-indazole-3-carboxamide] | – | – | > 3.33 h | < 5 µL/min/mg | Ki (hCB1 receptor [3]): 0.0025 µM; Ki (hCB2 receptor [4]): 0.003 µM; plasma levels [5]: < 0.03 µg/mL; CYP induction profile (in words) [6]: profile similar to that of 45
CC(C)(NC(=O)c1nn(CC2CCOCC2)c2ccccc12)c1cccc(C(N)=O)c1 [Compound 51, N-[2-(3-Carbamoylphenyl)propan-2-yl]-1-(oxan-4-ylmethyl)-1H-indazole-3-carboxamide] | – | – | 3.13 h | 3.3 µL/min/mg | Ki (hCB1 receptor [3]): 0.15 µM; Ki (hCB2 receptor [4]): 0.056 µM; plasma levels [5]: < 0.03 µg/mL; CYP induction profile (in words) [6]: profile similar to that of 45
CCCCCn1nc(C(=O)NC(C)(C)c2cccc(C(N)=O)c2)c2ccccc21 [Compound 52, N-[2-(3-Carbamoylphenyl)propan-2-yl]-1-pentyl-1H-indazole-3-carboxamide] | 0.202 ± 0.016 µM | 0.175 ± 0.032 µM | 0.533 h | 19 µL/min/mg | –
CC(F)(F)CCCn1nc(C(=O)NC(C)(C)c2cccc(C(N)=O)c2)c2ccccc21 [Compound 53, N-[2-(3-Carbamoylphenyl)propan-2-yl]-1-(4,4-difluoropentyl)-1H-indazole-3-carboxamide] | 0.463 ± 0.187 µM | 3.42 ± 0.151 µM | 2.67 h | 7.9 µL/min/mg | Ki (hCB1 receptor [3]): 0.054 µM; Ki (hCB2 receptor [4]): 0.075 µM
CC(C)(NC(=O)c1nn(CCCCCF)c2ccccc12)c1cccc(C(N)=O)c1 [Compound 54, N-[2-(3-Carbamoylphenyl)propan-2-yl]-1-(5-fluoropentyl)-1H-indazole-3-carboxamide] | 0.084 ± 0.006 µM | – | 1.02 h | 10 µL/min/mg | plasma levels [5]: < 0.03 µg/mL; CYP induction profile (in words) [6]: profile similar to that of 45
CC(C)(NC(=O)c1nn(CCCCC(F)(F)F)c2ccccc12)c1cccc(C(N)=O)c1 [Compound 55, N-[2-(3-Carbamoylphenyl)propan-2-yl]-1-(5,5,5-trifluoropentyl)-1H-indazole-3-carboxamide] | 0.156 ± 0.035 µM | 0.341 ± 0.145 µM | 1.7 h | 6 µL/min/mg | –
CC(C)(NC(=O)c1nn(CCCCC#N)c2ccccc12)c1cccc(C(N)=O)c1 [Compound 56, N-[2-(3-Carbamoylphenyl)propan-2-yl]-1-(4-cyanobutyl)-1H-indazole-3-carboxamide] | 0.731 ± 0.161 µM | 0.76 ± 0.175 µM | 3 h | 7 µL/min/mg | –
CC(C)(C#N)CCCn1nc(C(=O)NC(C)(C)c2cccc(C(N)=O)c2)c2ccccc21 [Compound 57, N-[2-(3-Carbamoylphenyl)propan-2-yl]-1-(4-cyano-4,4-dimethylbutyl)-1H-indazole-3-carboxamide] | 0.742 ± 0.05 µM | > 10 µM | – | – | –
CCOCCn1nc(C(=O)NC(C)(C)c2cccc(C(N)=O)c2)c2ccccc21 [Compound 58, N-[2-(3-Carbamoylphenyl)propan-2-yl]-1-(2-ethoxyethyl)-1H-indazole-3-carboxamide] | > 10 µM | > 10 µM | – | – | –
COCCCn1nc(C(=O)NC(C)(C)c2cccc(C(N)=O)c2)c2ccccc21 [Compound 59, N-[2-(3-Carbamoylphenyl)propan-2-yl]-1-(3-methoxypropyl)-1H-indazole-3-carboxamide] | > 10 µM | 2.56 ± 0.492 µM | – | – | –
